Data reported in ChEMBL document CHEMBL3797190, “Development of 3,5-Dinitrobenzylsulfanyl-1,3,4-oxadiazoles and Thiadiazoles as Selective Antitubercular Agents Active Against Replicating and Nonreplicating Mycobacterium tuberculosis” (J Med Chem, 2016).
Converted amounts (≈) assume the structure as drawn.

Experiments:
[1] = system: Mycobacterium tuberculosis; experiment: Antimycobacterial activity against Mycobacterium tuberculosis H37Rv after 7 days by HTS assay; type: functional; conditions: 168 h
[2] = system: Trichosporon asahii; experiment: Antifungal activity against Trichosporon asahii 1188 after 24 to 48 hrs by broth microdilution method; type: functional
[3] = system: Trichophyton mentagrophytes; experiment: Antifungal activity against Trichophyton mentagrophytes 445 after 72 to 120 hrs by broth microdilution method; type: functional
[4] = system: Klebsiella pneumoniae; experiment: Antibacterial activity against ESBL producing Klebsiella pneumoniae J 14368/08 after 24 to 48 hrs by broth microdilution method; type: functional
[5] = system: Enterococcus faecalis; experiment: Antibacterial activity against Enterococcus faecalis J 14365/08 after 24 to 48 hrs by broth microdilution method; type: functional
[6] = system: Staphylococcus aureus; experiment: Antibacterial activity against Staphylococcus aureus ATCC 6538 after 24 to 48 hrs by broth microdilution method; type: functional
[7] = Cytotoxicity against human HeLa cells assessed as cell viability at 20 uM after 48 hrs by MTS assay; type: cell-based; conditions: read-out: Activity
[8] = system: Mycobacterium kansasii; experiment: Antimycobacterial activity against Mycobacterium kansasii CNCTC My 235/80 after 14 days by microdilution method; type: functional; conditions: CNCTC My 235/80, 336 h
[9] = system: Mycobacterium tuberculosis; experiment: Antimycobacterial activity against Mycobacterium tuberculosis CNCTC My 331/88 after 21 days by microdilution method; type: functional; conditions: CNCTC My 331/88, 504 h
[10] = system: Mycobacterium kansasii; experiment: Antimycobacterial activity against Mycobacterium kansasii CNCTC My 6509/96 after 21 days by microdilution method; type: functional; conditions: CNCTC My 6509/96, 504 h
[11] = system: Escherichia coli; experiment: Antibacterial activity against Escherichia coli ATCC 8739 after 24 to 48 hrs by broth microdilution method; type: functional
[12] = Cytotoxicity against human HuH7 cells assessed as cell viability at 20 uM after 24 hrs by MTS assay; type: cell-based, Huh-7; conditions: read-out: Activity
[13] = system: Mycobacterium kansasii; experiment: Antimycobacterial activity against Mycobacterium kansasii CNCTC My 235/80 after 7 days by microdilution method; type: functional; conditions: CNCTC My 235/80, 168 h
[14] = system: Candida albicans; experiment: Antifungal activity against Candida albicans ATCC 44859 after 24 to 48 hrs by broth microdilution method; type: functional
[15] = Cytotoxicity against human HuH7 cells assessed as cell viability after 24 hrs by MTS assay; type: cell-based; conditions: Huh-7, 24 h
[16] = system: Mycobacterium kansasii; experiment: Antimycobacterial activity against Mycobacterium kansasii CNCTC My 235/80 after 21 days by microdilution method; type: functional; conditions: CNCTC My 235/80, 504 h
[17] = system: Mycobacterium kansasii; experiment: Antimycobacterial activity against Mycobacterium kansasii CNCTC My 6509/96 after 14 days by microdilution method; type: functional; conditions: CNCTC My 6509/96, 336 h
[18] = system: Mycobacterium kansasii; experiment: Antimycobacterial activity against Mycobacterium kansasii CNCTC My 6509/96 after 7 days by microdilution method; type: functional; conditions: CNCTC My 6509/96, 168 h
[19] = Cytotoxicity against human HuH7 cells assessed as cell viability after 48 hrs by MTS assay; type: cell-based; conditions: Huh-7, 48 h
[20] = system: Klebsiella pneumoniae; experiment: Antibacterial activity against Klebsiella pneumoniae D 11750/08 after 24 to 48 hrs by broth microdilution method; type: functional
[21] = Cytotoxicity against human HuH7 cells assessed as cell viability at 20 uM after 48 hrs by MTS assay; type: cell-based, Huh-7; conditions: read-out: Activity
[22] = Cytotoxicity against MDCK2-MDR1 cells assessed as cell viability after 24 hrs by MTS assay; type: ADME, cell-based; conditions: Canis lupus familiaris, MDCK-II
[23] = system: Nakaseomyces glabratus; experiment: Antifungal activity against Candida glabrata 20/I after 24 to 48 hrs by broth microdilution method; type: functional
[24] = system: HeLa; experiment: Cytotoxicity against human HeLa cells assessed as cell viability after 24 hrs by MTS assay; type: cell-based
[25] = Cytotoxicity against MDCK2-MDR1 cells assessed as cell viability at 20 uM after 24 hrs by MTS assay; type: ADME, cell-based, Canis lupus familiaris, MDCK-II; conditions: dog, read-out: Activity
[26] = system: Lichtheimia corymbifera; experiment: Antifungal activity against Absidia corymbifera 272 after 24 to 48 hrs by broth microdilution method; type: functional
[27] = system: Pseudomonas aeruginosa; experiment: Antibacterial activity against Pseudomonas aeruginosa ATCC 9027 after 24 to 48 hrs by broth microdilution method; type: functional
[28] = system: Mycobacterium avium; experiment: Antimycobacterial activity against Mycobacterium avium CNCTC My 330/88 after 21 days by microdilution method; type: functional; conditions: CNCTC My 330/88, 504 h
[29] = Cytotoxicity against MDCK2-MDR1 cells assessed as cell viability after 48 hrs by MTS assay; type: ADME, cell-based; conditions: Canis lupus familiaris, MDCK-II
[30] = system: Staphylococcus aureus; experiment: Antibacterial activity against methicillin-resistant Staphylococcus aureus H 5996/08 after 24 to 48 hrs by broth microdilution method; type: functional
[31] = Cytotoxicity against human HeLa cells assessed as cell viability at 20 uM after 24 hrs by MTS assay; type: cell-based; conditions: read-out: Activity
[32] = system: Mycobacterium avium; experiment: Antimycobacterial activity against Mycobacterium avium CNCTC My 330/88 after 14 days by microdilution method; type: functional; conditions: CNCTC My 330/88, 336 h
[33] = system: Mycobacterium tuberculosis; experiment: Antimycobacterial activity against Mycobacterium tuberculosis CNCTC My 331/88 after 14 days by microdilution method; type: functional; conditions: CNCTC My 331/88, 336 h
[34] = system: HeLa; experiment: Cytotoxicity against human HeLa cells assessed as cell viability after 48 hrs by MTS assay; type: cell-based
[35] = system: Candida tropicalis; experiment: Antifungal activity against Candida tropicalis 156 after 24 to 48 hrs by broth microdilution method; type: functional
[36] = Cytotoxicity against MDCK2-MDR1 cells assessed as cell viability at 20 uM after 48 hrs by MTS assay; type: ADME, cell-based, Canis lupus familiaris, MDCK-II; conditions: dog, read-out: Activity
[37] = system: Staphylococcus epidermidis; experiment: Antibacterial activity against Staphylococcus epidermidis H 6966/08 after 24 to 48 hrs by broth microdilution method; type: functional
[38] = system: Aspergillus fumigatus; experiment: Antifungal activity against Aspergillus fumigatus 231 after 24 to 48 hrs by broth microdilution method; type: functional
[39] = system: Pichia kudriavzevii; experiment: Antifungal activity against Candida krusei E28 after 24 to 48 hrs by broth microdilution method; type: functional
[40] = system: Salmonella typhimurium; experiment: Mutagenic activity in Salmonella typhimurium TA98 assessed as reverse mutation at 30 uM by Ames test; type: toxicity, organism-based; conditions: salmonella enterica subsp. enterica serovar typhimurium
[41] = Cytotoxicity against primary human hepatocytes assessed as cell viability at 20 uM after 48 hrs by MTS assay; type: cell-based, Hepatocyte; conditions: read-out: Activity
[42] = system: Hepatocyte; experiment: Cytotoxicity against primary human hepatocytes assessed as cell viability after 48 hrs by MTS assay; type: cell-based
[43] = system: Salmonella typhimurium; experiment: Mutagenic activity in Salmonella typhimurium TA100 assessed as reverse mutation at 30 uM by Ames test; type: toxicity, organism-based; conditions: salmonella enterica subsp. enterica serovar typhimurium

| Compound | viability at 48 h, 20 µM [7] [%] | MIC99 [8] [µM] | MIC99 [9] [µM] | MIC99 [10] [µM] | viability at 24 h, 20 µM [12] [%] | MIC99 [13] [µM] | IC50 [15] [µM] | MIC99 [16] [µM] | MIC99 [17] [µM] | MIC99 [18] [µM] | viability at 48 h, 20 µM [21] [%] | IC50 [22] [µM] | IC50 [24] [µM] | viability at 24 h, 20 µM [25] [%] | MIC99 [28] [µM] | IC50 [29] [µM] | viability at 24 h, 20 µM [31] [%] | MIC99 [32] [µM] | MIC99 [33] [µM] | IC50 [34] [µM] | also measured |
| --- | --- | --- | --- | --- | --- | --- | --- | --- | --- | --- | --- | --- | --- | --- | --- | --- | --- | --- | --- | --- | --- |
| COc1ccc(-c2nnc(SCC(=O)NCCc3ccccc3)o2)cc1 | – | – | – | – | – | – | – | – | – | – | – | – | – | – | – | – | – | – | – | – | IC90 [1]: 0.38 µM |
| COc1ccc(-c2nnc(SCc3cc([N+](=O)[O-])cc([N+](=O)[O-])c3)s2)cc1 | 27.1 | 1 (≈ 0.404 µg/mL) | 0.125 (≈ 0.0506 µg/mL) | 1 (≈ 0.404 µg/mL) | 95.4 | 0.25 (≈ 0.101 µg/mL) | > 20 | 1 (≈ 0.404 µg/mL) | 1 (≈ 0.404 µg/mL) | 0.25 (≈ 0.101 µg/mL) | 84.2 | > 20 | > 20 | 101 | 16 (≈ 6.47 µg/mL) | > 20 | 88 | 8 (≈ 3.24 µg/mL) | 0.125 (≈ 0.0506 µg/mL) | 4.4 | MIC80 [2]: > 125 µM; MIC50 [3]: > 125 µM; MIC95 [4]: > 125 µM; MIC95 [5]: > 125 µM; MIC95 [6]: > 125 µM; MIC95 [11]: > 125 µM; MIC80 [14]: > 125 µM; IC50 [19]: > 20 µM; MIC95 [20]: > 125 µM; MIC80 [23]: > 125 µM; MIC50 [26]: > 125 µM; MIC95 [27]: > 125 µM; MIC95 [30]: > 125 µM; MIC80 [35]: > 125 µM; viability at 48 h, 20 µM [36]: 60%; MIC95 [37]: > 125 µM; MIC50 [38]: > 125 µM; MIC80 [39]: > 125 µM |
| COc1ccc(-c2nnc(SCc3ccc([N+](=O)[O-])cc3[N+](=O)[O-])o2)cc1 | 106 | 8 (≈ 3.11 µg/mL) | 1 (≈ 0.388 µg/mL) | 16 (≈ 6.21 µg/mL) | 85.1 | 2 (≈ 0.777 µg/mL) | > 20 | 16 (≈ 6.21 µg/mL) | 8 (≈ 3.11 µg/mL) | 2 (≈ 0.777 µg/mL) | 77 | > 20 | > 20 | 87.9 | 4 (≈ 1.55 µg/mL) | > 20 | 89.9 | 4 (≈ 1.55 µg/mL) | 0.5 (≈ 0.194 µg/mL) | > 20 | MIC80 [2]: > 125 µM; MIC50 [3]: > 125 µM; MIC95 [4]: > 125 µM; MIC95 [5]: > 125 µM; MIC95 [6]: > 125 µM; MIC95 [11]: > 125 µM; MIC80 [14]: > 125 µM; IC50 [19]: > 20 µM; MIC95 [20]: > 125 µM; MIC80 [23]: > 125 µM; MIC50 [26]: > 125 µM; MIC95 [27]: > 125 µM; MIC95 [30]: > 125 µM; MIC80 [35]: > 125 µM; viability at 48 h, 20 µM [36]: 78.5%; MIC95 [37]: > 125 µM; MIC50 [38]: > 125 µM; MIC80 [39]: > 125 µM |
| O=[N+]([O-])c1ccc(CSc2nnc(-c3ccccc3)o2)c([N+](=O)[O-])c1 | 113 | 8 (≈ 2.87 µg/mL) | 4 (≈ 1.43 µg/mL) | 8 (≈ 2.87 µg/mL) | 99.5 | 4 (≈ 1.43 µg/mL) | > 20 | 16 (≈ 5.73 µg/mL) | 8 (≈ 2.87 µg/mL) | 2 (≈ 0.717 µg/mL) | 92.8 | > 20 | > 20 | 69.6 | > 16 | > 20 | 97.7 | > 16 | 2 (≈ 0.717 µg/mL) | > 20 | MIC80 [2]: > 125 µM; MIC50 [3]: > 125 µM; MIC95 [4]: > 125 µM; MIC95 [5]: > 125 µM; MIC95 [6]: > 125 µM; MIC95 [11]: > 125 µM; MIC80 [14]: > 125 µM; IC50 [19]: > 20 µM; Activity [40]: Toxic; MIC95 [20]: > 125 µM; MIC80 [23]: > 125 µM; MIC50 [26]: > 125 µM; MIC95 [27]: > 125 µM; MIC95 [30]: > 125 µM; MIC80 [35]: > 125 µM; viability at 48 h, 20 µM [36]: 73.3%; MIC95 [37]: > 125 µM; MIC50 [38]: > 125 µM; MIC80 [39]: > 125 µM |
| COc1cccc(-c2nnc(SCc3cc([N+](=O)[O-])cc([N+](=O)[O-])c3)s2)c1 | 17.5 | 0.5 (≈ 0.202 µg/mL) | 0.06 (≈ 0.0243 µg/mL) | 0.5 (≈ 0.202 µg/mL) | 86.3 | 0.25 (≈ 0.101 µg/mL) | > 20 | 0.5 (≈ 0.202 µg/mL) | 0.5 (≈ 0.202 µg/mL) | 0.25 (≈ 0.101 µg/mL) | 33 | > 20 | > 20 | 100 | 16 (≈ 6.47 µg/mL) | 6.4 | 71.2 | 8 (≈ 3.24 µg/mL) | ≤ 0.03 | 4 | Activity [40]: Non-toxic; viability at 48 h, 20 µM [41]: 121%; IC50 [42]: > 20 µM; Activity [43]: Non-toxic; viability at 48 h, 20 µM [36]: 18.5% |
